Assay results reported in patent US10793568B2, “Hormone receptor modulators for treating metabolic conditions and disorders” (ARDELYX, INC., priority 2016, dated 2020).

Target: ligand binding domain of human FXR (Homo sapiens (Human), UniProt Q96RI1)
Assay: FXR ligand binding assay (LanthaScreen TR-FRET, SRC2-2 peptide recruitment)
Settings: for Emax: extent of activation relative to GW4064, read-out: % Efficacy
Method: The affinity of FXR ligands for the ligand binding domain of FXR was determined using a commercially available human FXR ligand binding assay (LanthaScreen, Thermofisher Cat # PV4833). […] Binding of FXR ligands to the FXR ligand binding domain promotes binding of the fluorescein-labelled SRC2-2 peptide. This causes a FRET signal between the terbium-labelled anti-GST antibody and the fluorescein-labelled SRC peptide which are both bound to the FXR ligand binding domain.
Test compounds are dissolved in DMSO and a 3-fold serial dilution series is generated, then further diluted into assay buffer. The compounds are mixed with 5 nM GST-tagged FXR ligand binding domain, 5 nM Tb-labelled anti-GST antibody and 500 nM fluorescein-labelled SRC2-2 peptide in a pH7.4 buffer. The reaction is incubated at room temperature for 1 hour, then the FRET signal is measured as the ratio of the 520 nm/495 nm emission following excitation at 340 nm. The change in FRET signal is plotted against the test article concentration and fit to a 3-parameter logistical equation. The concentration required to produce 50% activation is expressed as pEC50 (−log EC50), and the extent of activation is expressed relative to GW4064 as % activation.

[1] = -log EC50, concentration required to produce 50% activation

Chain of ligand binding domain of human FXR (Q96RI1 262-486): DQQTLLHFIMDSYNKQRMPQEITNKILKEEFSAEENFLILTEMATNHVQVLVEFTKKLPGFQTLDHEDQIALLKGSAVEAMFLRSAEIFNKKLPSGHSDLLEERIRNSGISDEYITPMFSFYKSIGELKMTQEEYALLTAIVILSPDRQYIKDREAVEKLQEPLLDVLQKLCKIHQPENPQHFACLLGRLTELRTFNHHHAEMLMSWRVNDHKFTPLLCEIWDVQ

| Structure (SMILES) | EC50 [1] [nM] | Emax [%] | pEC50 [1] |
| --- | --- | --- | --- |
| Cc1cc(C(=O)NO)ccc1N1C[C@@H]2C[C@H]1C[C@H]2OCc1c(-c2c(Cl)cccc2Cl)noc1C1CC1 [Compound I-139, 4-[(1S,4S,5R)-5-{[5-cyclopropyl-3-(2,6-dichlorophenyl)-1,2-oxazol-4-yl]methoxy}-2-azabicyclo[2.2.1]heptan-2-yl]-N-hydroxy-3-methylbenzamide] | 0.631 | 132 | – |
| O=C(O)c1ccc(N2C(=O)[C@@H]3C[C@H]2C[C@H]3OCc2c(-c3c(Cl)cccc3Cl)noc2C2CC2)cn1 [Compound I-321, 5-[(1S,4R,5R)-5-{[5-cyclopropyl-3-(2,6-dichlorophenyl)-1,2-oxazol-4-yl]methoxy}-3-oxo-2-azabicyclo[2.2.1]heptan-2-yl]pyridine-2-carboxylic Acid] | – | 146 | 7.6 |
| O=C(O)c1ccc(N2C(=O)[C@@H]3C[C@H]2C[C@H]3OCc2c(-c3c(Cl)cccc3Cl)noc2C2CC2)nc1 [Compound I-322, 6-[(1S,4R,5R)-5-{[5-cyclopropyl-3-(2,6-dichlorophenyl)-1,2-oxazol-4-yl]methoxy}-3-oxo-2-azabicyclo[2.2.1]heptan-2-yl]pyridine-3-carboxylic acid] | – | 132 | 7.4 |
| O=C(O)c1ncc(N2C(=O)[C@@H]3C[C@H]2C[C@H]3OCc2c(-c3c(Cl)cccc3Cl)noc2C2CC2)cn1 [Compound I-323, 5-[(1S,4R,5R)-5-{[5-cyclopropyl-3-(2,6-dichlorophenyl)-1,2-oxazol-4-yl]methoxy}-3-oxo-2-azabicyclo[2.2.1]heptan-2-yl]pyrimidine-2-carboxylic Acid] | – | 103 | 6.4 |
| O=C(O)c1cnc(N2C(=O)[C@@H]3C[C@H]2C[C@H]3OCc2c(-c3c(Cl)cccc3Cl)noc2C2CC2)cn1 [Compound I-324, 5-[(1S,4R,5R)-5-{[5-cyclopropyl-3-(2,6-dichlorophenyl)-1,2-oxazol-4-yl]methoxy}-3-oxo-2-azabicyclo[2.2.1]heptan-2-yl]pyrazine-2-carboxylic Acid] | – | 140 | 7.1 |
| O=C(O)c1ccc(N2C(=O)[C@@H]3C[C@H]2C[C@H]3OCc2c(-c3c(Cl)cccc3Cl)noc2C2CC2)nn1 [Compound I-325, 6-[(1S,4R,5R)-5-{[5-cyclopropyl-3-(2,6-dichlorophenyl)-1,2-oxazol-4-yl]methoxy}-3-oxo-2-azabicyclo[2.2.1]heptan-2-yl]pyridazine-3-carboxylic Acid] | – | 104 | 6.6 |
| O=C(O)c1ncc(N2C(=O)[C@@H]3C[C@H]2C[C@H]3OCc2c(-c3c(Cl)cccc3Cl)noc2C2CC2)cc1F [Compound I-326, 5-[(1S,4R,5R)-5-{[5-cyclopropyl-3-(2,6-dichlorophenyl)-1,2-oxazol-4-yl]methoxy}-3-oxo-2-azabicyclo[2.2.1]heptan-2-yl]-3-fluoropyridine-2-carboxylic Acid] | – | 132 | 7.1 |
| O=C(O)CCc1ccc(N2C(=O)[C@@H]3C[C@H]2C[C@H]3OCc2c(-c3c(Cl)cccc3Cl)noc2C2CC2)cn1 [Compound I-327, 3-{5-[(1S,4R,5R)-5-{[5-cyclopropyl-3-(2,6-dichlorophenyl)-1,2-oxazol-4-yl]methoxy}-3-oxo-2-azabicyclo[2.2.1]heptan-2-yl]pyridin-2-yl}propanoic Acid] | – | – | >5.5 |
| O=C(O)CCc1ncc(N2C(=O)[C@@H]3C[C@H]2C[C@H]3OCc2c(-c3c(Cl)cccc3Cl)noc2C2CC2)cc1F [Compound I-328, 3-{5-[(1S,4R,5R)-5-{[5-cyclopropyl-3-(2,6-dichlorophenyl)-1,2-oxazol-4-yl]methoxy}-3-oxo-2-azabicyclo[2.2.1]heptan-2-yl]-3-fluoropyridin-2-yl}propanoic Acid] | – | 87 | 6.9 |
| CO[C@@H]1CCC[C@H]1S(=O)(=O)NC(=O)c1ncc(N2C(=O)[C@@H]3C[C@H]2C[C@H]3OCc2c(-c3c(Cl)cccc3Cl)noc2C2CC2)cc1F [Compound I-348, 5-[(1S,4R,5R)-5-{[5-cyclopropyl-3-(2,6-dichlorophenyl)-1,2-oxazol-4-yl]methoxy}-3-oxo-2-azabicyclo[2.2.1]heptan-2-yl]-3-fluoro-N-{[(1R,2R)-2-methoxycyclopentyl]sulfonyl}pyridine-2-carboxamide] | – | 171 | 8 |
| O=C(NS(=O)(=O)[C@@H]1CCC[C@H]1O)c1ncc(N2C(=O)[C@@H]3C[C@H]2C[C@H]3OCc2c(-c3c(Cl)cccc3Cl)noc2C2CC2)cc1F [Compound I-349, 5-[(1S,4R,5R)-5-{[5-cyclopropyl-3-(2,6-dichlorophenyl)-1,2-oxazol-4-yl]methoxy}-3-oxo-2-azabicyclo[2.2.1]heptan-2-yl]-3-fluoro-N-{[(1R,2R)-2-hydroxycyclopentyl]sulfonyl}pyridine-2-carboxamide] | – | 171 | 8.2 |
| O=C(NS(=O)(=O)[C@@H]1CCC[C@H]1O)c1ccc(N2C(=O)[C@@H]3C[C@H]2C[C@H]3OCc2c(-c3c(Cl)cccc3Cl)noc2C2CC2)cn1 [Compound I-350, 5-[(1S,4R,5R)-5-{[5-cyclopropyl-3-(2,6-dichlorophenyl)-1,2-oxazol-4-yl]methoxy}-3-oxo-2-azabicyclo[2.2.1]heptan-2-yl]-N-{[(1R,2R)-2-hydroxycyclopentyl]sulfonyl}pyridine-2-carboxamide] | – | 170 | 8.1 |
| O=C(NS(=O)(=O)C1CC1)c1ccc(N2C(=O)[C@@H]3C[C@H]2C[C@H]3OCc2c(-c3c(Cl)cccc3Cl)noc2C2CC2)cn1 [Compound I-351, 5-((1S,4R,5R)-5-((5-cyclopropyl-3-(2,6-dichlorophenyl)isoxazol-4-yl)methoxy)-3-oxo-2-azabicyclo[2.2.1]heptan-2-yl)-N-(cyclopropylsulfonyl)picolinamide] | – | 132 | 7.6 |
| O=C(NS(=O)(=O)C1CCOCC1)c1ccc(N2C(=O)[C@@H]3C[C@H]2C[C@H]3OCc2c(-c3c(Cl)cccc3Cl)noc2C2CC2)cn1 [Compound I-352, 5-((1S,4R,5R)-5-((5-cyclopropyl-3-(2,6-dichlorophenyl)isoxazol-4-yl)methoxy)-3-oxo-2-azabicyclo[2.2.1]heptan-2-yl)-N-((tetrahydro-2H-pyran-4-yl)sulfonyl)picolinamide] | – | 154 | 8 |
| O=C(NS(=O)(=O)C1CCCC1)c1ccc(N2C(=O)[C@@H]3C[C@H]2C[C@H]3OCc2c(-c3c(Cl)cccc3Cl)noc2C2CC2)cn1 [Compound I-353, N-(cyclopentylsulfonyl)-5-((1S,4R,5R)-5-((5-cyclopropyl-3-(2,6-dichlorophenyl)isoxazol-4-yl)methoxy)-3-oxo-2-azabicyclo[2.2.1]heptan-2-yl)picolinamide] | – | 159 | 8.3 |
| CC1(C)CC(S(=O)(=O)NC(=O)c2ccc(N3C(=O)[C@@H]4C[C@H]3C[C@H]4OCc3c(-c4c(Cl)cccc4Cl)noc3C3CC3)cn2)CCO1 (stereo partly drawn) [Compound I-354, 5-((1S,4R,5R)-5-((5-cyclopropyl-3-(2,6-dichlorophenyl)isoxazol-4-yl)methoxy)-3-oxo-2-azabicyclo[2.2.1]heptan-2-yl)-N-((2,2-dimethyltetrahydro-2H-pyran-4-yl)sulfonyl)picolinamide] | – | 138 | 8.1 |
